The text below walks through data of patent US20240308995A1, “O-GLYCOPROTEIN-2-ACETAMIDO-2-DEOXY-3-D-GLUCOPYRANOSIDASE INHIBITORS” (BIOGEN MA INC., priority 2018, published 2024).

Data set [1] concerns the target OGA (S400 O-GLCNAC), HEK-293T cells transfected with Tau-V5 (Homo sapiens (Human), UniProt O60502). The experiment in a line: Cellular OGA-Tau MSD Assay. In kind it is cell-based. The following applies: HEK-293T cells, Tau-S400-GlcNAc MSD readout. Put shortly:
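HEK-293T cells transfected with OGA and Tau-V5 plasmids were treated overnight at 37° C with a 10-point, 3-fold titration from 1 uM. Lysates went onto V5-antibody MSD plates to capture Tau, probed with a Tau O-GlcNAc antibody and read by electrochemiluminescence; IC50 from a 4-parameter fit.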

Data set [2] addresses Recombinant full length human OGA enzyme (Homo sapiens (Human), UniProt O60502). Description: OGA Enzyme Inhibition Biochemical Assay. The settings on record: 1 nM OGA, 100 μM 4-MUGlcNAc, pH 6.4. Put shortly:
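Full-length recombinant human OGA with fluorogenic 4-MUGlcNAc in McIlvaine buffer pH 6.4, 0.01% BSA; 90 min at room temperature, glycine pH 10 quench, fluorescence Ex 355/Em 460 nm. 10-point, 4-fold dilution from 20 μM; 4-parameter variable-slope fit.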

The test system of data set [3] is P-gp (MDR1). Description: MDR1-MDCK Efflux Ratio Assay. In kind it is in vitro ADME. The following applies: dog, MDCK-MDR1, pH 7.4, MDR1-MDCK cells, 2 hr, pH 7.4; read-out: MDR1-MDCK Efflux Ratio (B-A/A-B). Put shortly: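 Bidirectional (apical↔basolateral) transport across confluent MDR1-MDCK monolayers in HBSS/10 mM HEPES pH 7.4, receiver buffer with 1% BSA; 2 hr at 37° C, 5% CO2. Donor sampled at 0 and 120 min, receiver at 120 min, quantified by LC-MS/MS in triplicate. Papp, efflux ratio and percent recovery calculated.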

A short description of data set [4]: Rat Liver Microsome Stability Assay. The settings on record: rat liver microsomes, 1 uM compound. Format: in vitro ADME. (Liver microsomes are vesicles of endoplasmic reticulum, rich in cytochrome P450 enzymes.)

Molecules are shown by their SMILES.

Recombinant full length human OGA enzyme, sequence (O60502 whole entry): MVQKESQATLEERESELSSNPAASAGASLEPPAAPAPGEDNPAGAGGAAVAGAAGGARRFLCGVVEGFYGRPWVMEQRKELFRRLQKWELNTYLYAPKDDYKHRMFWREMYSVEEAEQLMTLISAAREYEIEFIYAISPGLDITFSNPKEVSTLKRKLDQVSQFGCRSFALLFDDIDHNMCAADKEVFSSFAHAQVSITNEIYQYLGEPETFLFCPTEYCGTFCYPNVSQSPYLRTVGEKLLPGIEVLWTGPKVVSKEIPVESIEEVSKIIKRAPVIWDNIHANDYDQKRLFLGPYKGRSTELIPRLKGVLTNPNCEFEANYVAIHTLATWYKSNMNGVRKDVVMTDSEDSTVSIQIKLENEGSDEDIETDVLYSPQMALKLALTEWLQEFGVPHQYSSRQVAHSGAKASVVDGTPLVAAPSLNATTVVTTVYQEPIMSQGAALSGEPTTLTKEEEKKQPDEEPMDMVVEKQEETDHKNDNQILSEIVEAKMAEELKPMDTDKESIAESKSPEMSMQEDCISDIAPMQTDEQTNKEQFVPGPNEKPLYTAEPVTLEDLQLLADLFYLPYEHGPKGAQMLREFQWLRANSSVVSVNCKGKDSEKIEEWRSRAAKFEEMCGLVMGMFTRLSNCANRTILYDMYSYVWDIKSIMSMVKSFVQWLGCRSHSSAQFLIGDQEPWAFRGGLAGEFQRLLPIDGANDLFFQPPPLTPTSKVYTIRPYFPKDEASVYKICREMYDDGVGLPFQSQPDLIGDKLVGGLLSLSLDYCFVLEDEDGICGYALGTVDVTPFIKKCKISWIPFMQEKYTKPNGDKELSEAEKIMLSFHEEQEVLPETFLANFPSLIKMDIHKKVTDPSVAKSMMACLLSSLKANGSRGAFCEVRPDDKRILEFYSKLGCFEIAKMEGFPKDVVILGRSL
OGA (S400 O-GLCNAC), HEK-293T cells transfected with Tau-V5, sequence (O60502 whole entry): as above

Regarding `CC(=O)Nc1nc(F)c(CN2C[C@H](Oc3cc(C)nc(C)c3)C[C@@H]2C)s1` [Example 1-50, N-(5-(((2S,4R)-4-((2,6-dimethylpyridin-4-yl)oxy)-2-methylpyrrolidin-1-yl)methyl)-4-fluorothiazol-2-yl)acetamide], the IC50 (commonly the concentration that gives 50% inhibition) in data set [1] is 1 nM; in data set [2] it was < 1 nM. Further, the efflux ratio at 2 h in data set [3] was determined as 22.4. Moreover, in data set [4], the “RLM % Qh (%)” value is recorded as 47%.
The like results for `CC(=O)Nc1nc(F)c(CN2C[C@@H](Oc3cc(C)nc(C)c3)C[C@@H]2C)s1` [Example 1-52, N-(5-(((2S,4S)-4-((2,6-dimethylpyridin-4-yl)oxy)-2-methylpyrrolidin-1-yl)methyl)-4-fluorothiazol-2-yl)acetamide] were, in that order, 55 nM, 33 nM, 12.9 and 76%.
With `CC(=O)Nc1nc(F)c(CN2C[C@@H](Oc3cc(C)nc(C)c3)C[C@H]2C)s1` [Example 1-53, N-(5-(((2R,4S)-4-((2,6-dimethylpyridin-4-yl)oxy)-2-methylpyrrolidin-1-yl)methyl)-4-fluorothiazol-2-yl)acetamide], the IC50 in data set [1] is > 1000 nM; in data set [2], 1700 nM. The efflux ratio at 2 h in data set [3] came to 21.8. Further, in data set [4], the “RLM % Qh (%)” value was 26%.
Turning to `CC(=O)Nc1nc(F)c(CN2CCC[C@H](Oc3cc(C)nc(C)c3)C2)s1` [Example 1-54, (S)—N-(5-((3-((2,6-dimethylpyridin-4-yl)oxy)piperidin-1-yl)methyl)-4-fluorothiazol-2-yl)acetamide], the half-inhibitory concentration (IC50) turned out to be 70 nM in data set [1] and 11 nM in data set [2]. In addition, the efflux ratio at 2 h in data set [3] was determined as 25.4. Moreover, the “RLM % Qh (%)” value in data set [4] turned out to be 78%.
The like results for `CC(=O)Nc1nc(F)c(CN2CCC[C@@H](Oc3cc(C)nc(C)c3)C2)s1` [Example 1-55, (R)—N-(5-((3-((2,6-dimethylpyridin-4-yl)oxy)piperidin-1-yl)methyl)-4-fluorothiazol-2-yl)acetamide] were, in that order, 13 nM, 1.1 nM, 19 and 85%.
For `CC(=O)Nc1nc(F)c(CN2C[C@H](Oc3cc(C)nc(C)c3)CC[C@@H]2C)s1` [Example 1-57, N-(5-(((2S,5R)-5-((2,6-dimethylpyridin-4-yl)oxy)-2-methylpiperidin-1-yl)methyl)-4-fluorothiazol-2-yl)acetamide], in that order: 3 nM, < 1 nM, 26.4 and 93%.
For `CC(=O)Nc1ncc(CN2CC[C@H](Oc3cc(C)nc(C)c3)C2)s1` [Example 1-58, (S)—N-(5-((3-((2,6-dimethylpyridin-4-yl)oxy)pyrrolidin-1-yl)methyl)thiazol-2-yl)acetamide], in that order: > 1000 nM, 520 nM, 28.5 and 16%.
On to `CC(=O)Nc1ncc(CN2CC[C@@H](Oc3cc(C)nc(C)c3)C2)s1` [Example 1-59, (R)—N-(5-((3-((2,6-dimethylpyridin-4-yl)oxy)pyrrolidin-1-yl)methyl)thiazol-2-yl)acetamide], for which the IC50 was 8 nM in data set [1] and 1.9 nM in data set [2]. In addition, in data set [3], the efflux ratio at 2 h was 22.2. The “RLM % Qh (%)” value in data set [4] is 55%.
For the compound `CC(=O)Nc1ncc(CN2C[C@H](Oc3cc(C)nc(C)c3)C[C@@H]2C)s1` [Example 1-60, N-(5-(((2S,4R)-4-((2,6-dimethylpyridin-4-yl)oxy)-2-methylpyrrolidin-1-yl)methyl)thiazol-2-yl)acetamide], the figures for the IC50 in data set [1] and in data set [2] were 1 nM and < 1 nM, respectively. Also, in data set [3], the efflux ratio at 2 h turned out to be 21.3. In addition, the “RLM % Qh (%)” value in data set [4] came out at 56%.
With `CC(=O)Nc1ncc(CN2C[C@H](Oc3cc(C)nc(C)c3)C[C@H]2C)s1` [Example 1-61, N-(5-(((2R,4R)-4-((2,6-dimethylpyridin-4-yl)oxy)-2-methylpyrrolidin-1-yl)methyl)thiazol-2-yl)acetamide], the values for the IC50 in data set [1] and in data set [2] were 39 nM and 7 nM, respectively. Further, the efflux ratio at 2 h in data set [3] came to 45.2. For the same compound, the “RLM % Qh (%)” value in data set [4] stood at 31%.
For `CC(=O)Nc1ncc(CN2C[C@@H](Oc3cc(C)nc(C)c3)C[C@@H]2C)s1` [Example 1-62, N-(5-(((2S,4S)-4-((2,6-dimethylpyridin-4-yl)oxy)-2-methylpyrrolidin-1-yl)methyl)thiazol-2-yl)acetamide], in that order: 89 nM, 26 nM, 65 and 32%.
Take `CC(=O)Nc1ncc(CN2C[C@@H](Oc3cc(C)nc(C)c3)C[C@H]2C)s1` [Example 1-63, N-(5-(((2R,4S)-4-((2,6-dimethylpyridin-4-yl)oxy)-2-methylpyrrolidin-1-yl)methyl)thiazol-2-yl)acetamide]: the results for the IC50 in data set [1] and in data set [2] were > 1000 nM and 420 nM, respectively. Further, in data set [3], the efflux ratio at 2 h is 45.3. Also, in data set [4], the “RLM % Qh (%)” value came out at 16%.
The like results for `CC(=O)Nc1ncc(CN2CCC[C@H](Oc3cc(C)nc(C)c3)C2)s1` [Example 1-64, (S)—N-(5-((3-((2,6-dimethylpyridin-4-yl)oxy)piperidin-1-yl)methyl)thiazol-2-yl)acetamide] were, in that order, 31 nM, 23 nM, 35.3 and 67%.
For the compound `CC(=O)Nc1ncc(CN2CCC[C@@H](Oc3cc(C)nc(C)c3)C2)s1` [Example 1-65, (R)—N-(5-((3-((2,6-dimethylpyridin-4-yl)oxy)piperidin-1-yl)methyl)thiazol-2-yl)acetamide], the IC50 in data set [1] was determined as 18 nM; in data set [2] it was 2.1 nM. Moreover, the efflux ratio at 2 h in data set [3] was 17. Besides, the “RLM % Qh (%)” value in data set [4] amounted to 85%.
The like results for `COc1ccc(O[C@@H]2C[C@H](C)N(Cc3cnc(NC(C)=O)s3)C2)nn1` [Example 1-68, N-(5-(((2S,4R)-4-((6-methoxypyridazin-3-yl)oxy)-2-methylpyrrolidin-1-yl)methyl)thiazol-2-yl)acetamide] were, in that order, 2 nM, < 1 nM, 28.6 and 34%.
For `CC(=O)Nc1ncc(CN2C[C@H](Oc3cnc(C)cn3)C[C@@H]2C)s1` [Example 1-69, N-(5-(((2S,4R)-2-methyl-4-((5-methylpyrazin-2-yl)oxy)pyrrolidin-1-yl)methyl)thiazol-2-yl)acetamide], in that order: 3 nM, < 1 nM, 6.1 and 59%.
In the case of `COc1ncnc(O[C@@H]2C[C@H](C)N(Cc3cnc(NC(C)=O)s3)C2)c1C` [Example 1-71, N-(5-(((2S,4R)-4-((6-methoxy-5-methylpyrimidin-4-yl)oxy)-2-methylpyrrolidin-1-yl)methyl)thiazol-2-yl)acetamide], the IC50 is 16 nM in data set [1] and 1.7 nM in data set [2]. Moreover, the efflux ratio at 2 h in data set [3] was found to be 3.5. Besides, in data set [4], the “RLM % Qh (%)” value is 76%.
Turning to `CC(=O)Nc1ncc(CN2C[C@H](Oc3cc(C)ncc3C)C[C@@H]2C)s1` [Example 1-72, N-(5-(((2S,4R)-4-((2,5-dimethylpyridin-4-yl)oxy)-2-methylpyrrolidin-1-yl)methyl)thiazol-2-yl)acetamide], the IC50 is 8 nM in data set [1] and 7.2 nM in data set [2]. The efflux ratio at 2 h in data set [3] came out at 55.1. Also, the “RLM % Qh (%)” value in data set [4] is reported as 64%.
The like results for `COc1cnc(O[C@@H]2C[C@H](C)N(Cc3cnc(NC(C)=O)s3)C2)cn1` [Example 1-73, N-(5-(((2S,4R)-4-((5-methoxypyrazin-2-yl)oxy)-2-methylpyrrolidin-1-yl)methyl)thiazol-2-yl)acetamide] were, in that order, 3 nM, < 1 nM, 2.9 and 57%.
For the compound `COc1nc(C)cc(O[C@@H]2C[C@H](C)N(Cc3cnc(NC(C)=O)s3)C2)n1` [Example 1-75, N-(5-(((2S,4R)-4-((2-methoxy-6-methylpyrimidin-4-yl)oxy)-2-methylpyrrolidin-1-yl)methyl)thiazol-2-yl)acetamide], the results for the IC50 in data set [1] and in data set [2] were 2 nM and < 1 nM, respectively. The efflux ratio at 2 h in data set [3] was 6.7. The “RLM % Qh (%)” value in data set [4] was determined as 58%.
For `CC(=O)Nc1ncc(CN2C[C@H](Oc3cc(C(C)=O)ncn3)C[C@@H]2C)s1` [Example 1-76], in that order: 25 nM, 2.6 nM, 6 and 65%.
For `CC(=O)Nc1ncc(CN2C[C@H](Oc3cc(F)ncn3)C[C@@H]2C)s1` [Example 1-78, N-(5-(((2S,4R)-4-((6-fluoropyrimidin-4-yl)oxy)-2-methylpyrrolidin-1-yl)methyl)thiazol-2-yl)acetamide], in that order: 6 nM, 2.4 nM, 4.1 and 47%.
